# Reference: ChEMBL document CHEMBL6087460, “Generating a Peptide Library Using the Repeats of Amino Acid Scaffolds Created by Sliding the Framework of a 7-mer Human Chemerin Segment and Discovery of Potent Antibacterial and Antimycobacterial Peptides” (J Med Chem, 2025)
# Activity calls are given as the source filed them. The rule behind the calls is not given here.
# Columns and labels:
# [1] = Hemolytic activity in human RBC measured after 40 mins by absorbance based assay; type: toxicity, cell-based, Erythrocyte; conditions: human red blood cells
# [2] = system: Mycolicibacterium smegmatis; test: Antitubercular activity against Mycobacterium smegmatis incubated for 24 hrs by rezasurin dye based assay; type: functional
# Staphylococcus aureus [3] = test: Bactericidal activity against Staphylococcus aureus ATCC 25923 at MIC incubated for about 135 mins by time kill assay relative to control; type: functional; conditions: 2.25 h
# Escherichia coli [4] = test: Antibacterial activity against Escherichia coli ATCC 25922 incubated for 16 to 18 hrs by broth dilution assay; type: functional; conditions: time 16-18 hrs
# Staphylococcus aureus [5] = test: Antibacterial activity against Staphylococcus aureus ATCC 25923 incubated for 16 to 18 hrs by broth dilution assay; type: functional; conditions: time 16-18 hrs
# Pseudomonas aeruginosa = test: Antibacterial activity against Pseudomonas aeruginosa ATCC BAA-427 incubated for 16 to 18 hrs by broth dilution assay; type: functional; conditions: time 16-18 hrs
# Staphylococcus aureus [6] = test: Disruption of membrane integrity in Staphylococcus aureus ATCC 25923 by PI staining based analysis; type: functional, organism-based
# Staphylococcus aureus [7] = test: Antibacterial activity against methicillin-resistant Staphylococcus aureus 33591 incubated for 16 to 18 hrs by broth dilution assay; type: functional; conditions: time 16-18 hrs
# [8] = Cytotoxicity against rat L6 cells assessed as cell viability at 100 uM incubated for 24 hrs by MTT assay relative to control; type: toxicity, cell-based; conditions: L6 cells, read-out: Activity
# [9] = Hemolytic activity in human RBC assessed as disruption of membrane integrity by Alexa Fluor-Annexin V staining based analysis; type: toxicity, cell-based; conditions: erythrocyte
# [10] = Cytotoxicity against mouse 3T3-L1 cells assessed as cell viability at 100 uM incubated for 24 hrs by MTT assay relative to control; type: toxicity, cell-based; conditions: 3T3-L1 cells, read-out: Activity
# Staphylococcus aureus [11] = test: Induction of cell membrane damage in Staphylococcus aureus ATCC 25923 at 3 times MIC incubated for 60 mins by SEM analysis; type: functional, organism-based
# Escherichia coli [12] = test: Disruption of membrane integrity in Escherichia coli ATCC 25922 by PI staining based analysis; type: functional, organism-based
# Bacillus subtilis = test: Antibacterial activity against Bacillus subtilis 6633 incubated for 16 to 18 hrs by broth dilution assay; type: functional; conditions: time 16-18 hrs
# Klebsiella pneumoniae = test: Antibacterial activity against Klebsiella pneumoniae ATCC 27736 incubated for 16 to 18 hrs by broth dilution assay; type: functional; conditions: time 16-18 hrs
# Escherichia coli [13] = test: Disruption of plasma membrane integrity in Escherichia coli ATCC 25922 by SYTOX-Green uptake assay; type: functional, organism-based
# Escherichia coli [14] = test: Antibacterial activity against Escherichia coli ATCC 25922 incubated for 16 to 18 hrs in presence of 10 percent human serum by broth dilution assay; type: functional; conditions: time 16-18 hrs
# Escherichia coli [15] = test: Induction of cell membrane damage in Escherichia coli ATCC 25922 at 3 times MIC incubated for 60 mins by SEM analysis; type: functional, organism-based
# Escherichia coli [16] = test: Bactericidal activity against Escherichia coli ATCC 25922 at MIC incubated for about 100 mins by time kill assay relative to control; type: functional; conditions: 1.667 h
# Staphylococcus aureus [17] = test: Induction of membrane depolarization in Staphylococcus aureus ATCC 25923 by diSC3-5 dye based analysis; type: functional, organism-based
# Staphylococcus aureus [18] = test: Disruption of plasma membrane integrity in Staphylococcus aureus ATCC 25923 by SYTOX-Green uptake assay; type: functional, organism-based
# [19] = Retention time of compound by RP-HPLC method; type: physicochemical
# Staphylococcus aureus [20] = test: Antibacterial activity against Staphylococcus aureus ATCC 25923 incubated for 16 to 18 hrs in presence of 10 percent human serum by broth dilution assay; type: functional; conditions: time 16-18 hrs
# Staphylococcus aureus [21] = test: Antibacterial activity against methicillin-resistant Staphylococcus aureus BAA-44 incubated for 16 to 18 hrs by broth dilution assay; type: functional; conditions: time 16-18 hrs
# Escherichia coli [22] = test: Induction of membrane depolarization in Escherichia coli ATCC 25922 by diSC3-5 dye based analysis; type: functional, organism-based
# Staphylococcus aureus [23] = test: Bactericidal activity against Staphylococcus aureus ATCC 25923 incubated for 16 to 18 hrs; type: functional; conditions: time 16-18 hrs
# Escherichia coli [24] = test: Bactericidal activity against Escherichia coli ATCC 25922 incubated for 16 to 18 hrs; type: functional; conditions: time 16-18 hrs
# Staphylococcus aureus [25] = test: Bactericidal activity against Staphylococcus aureus ATCC 25923 at MIC incubated for 45 mins by time kill assay; type: functional, organism-based
# [26] = Toxicity in mouse assessed as animal survival at 15 mg/kg, iv administered each day for 5 days measured after 7 days post-last dose; type: organism-based; conditions: in vivo, 120 h, time 5 day
# Staphylococcus aureus [27] = test: Bactericidal activity against Staphylococcus aureus ATCC 25923 at MIC incubated for 30 mins by time kill assay; type: functional, organism-based
# Escherichia coli [28] = test: Antibacterial activity against Escherichia coli ATCC 25922 infected in BALB/c mouse assessed as bacterial load in blood at 5 mg/kg, iv administered thrice at 1,3 and 5 hrs post-infection measured after 24 hrs post-last dose (Rvb ~ 4 x10^6 CFU/mL); type: functional; conditions: time 29 hrs
# [29] = system: Mycolicibacterium smegmatis; test: Antimycobacterial activity against Mycobacterium smegmatis assessed as reduction in bacterial growth at 2 times MIC pretreated for 1 hr followed by compound removal and subsequent culturing in fresh media without compound for 24 hrs measured after 4 days; type: functional, organism-based
# [30] = system: Mycolicibacterium smegmatis; test: Disruption of cell membrane integrity in Mycobacterium smegmatis incubated for 2 hrs by EtBr uptake assay; type: functional, organism-based
# Escherichia coli [31] = test: Bactericidal activity against Escherichia coli ATCC 25922 at MIC incubated for 30 mins by time kill assay; type: functional, organism-based
# Escherichia coli [32] = test: Antibacterial activity against Escherichia coli ATCC 25922 infected in BALB/c mouse assessed as bacterial count in liver at 5 mg/kg, iv administered thrice at 1,3 and 5 hrs post-infection measured after 24 hrs post-last dose (Rvb ~ 2.3 x10^7 CFU/mL); type: functional; conditions: time 29 hrs
# [33] = Toxicity in BALB/c mouse infected with Mycobacterium bovis BCG assessed as animal survival at 2.5 to 5 mg/kg, iv administered once a day for 2 weeks; type: organism-based; conditions: in vivo, 336 h, dose 2.5-5 mg/kg
# [34] = Stability in 10 percent human serum assessed as compound remaining measured after 60 mins by RP-HPLC analysis; type: ADME, cell-free; conditions: 10% human serum, read-out: Stability
# [35] = Toxicity in BALB/c mouse infected with Escherichia coli ATCC 25922 assessed as animal survival at 2.5 mg/kg, iv administered thrice at 1,3 and 5 hrs post-infection measured after 7 days; type: organism-based; conditions: in vivo, 168 h, time 7 day
# Staphylococcus aureus [36] = test: Induction of resistance development in methicillin-resistant Staphylococcus aureus BAA-44 assessed as fold increase in MIC at sub-MIC measured after 30 passages relative to control; type: functional
# [37] = Toxicity in mouse assessed as change in serum AST level at 15 mg/kg, iv administered each day for 5 days measured after 7 days post-last dose; type: organism-based; conditions: in vivo, 120 h, time 5 day
# [38] = Toxicity in BALB/c mouse assessed as change in AST level at 15 mg/kg, iv administered thrice at 2 hrs interval measured after 7 days; type: organism-based; conditions: in vivo, 168 h, time 7 day
# [39] = Toxicity in mouse assessed as change in serum ALT level at 15 mg/kg, iv administered each day for 5 days measured after 7 days post-last dose; type: organism-based; conditions: in vivo, 120 h, time 5 day
# Escherichia coli [40] = test: Antibacterial activity against Escherichia coli ATCC 25922 infected in BALB/c mouse assessed as bacterial count in kidney at 5 mg/kg, iv administered thrice at 1,3 and 5 hrs post-infection measured after 24 hrs post-last dose (Rvb ~ 1.8 x10^7 CFU/mL); type: functional; conditions: time 29 hrs
# Staphylococcus aureus [41] = test: Induction of resistance development in Staphylococcus aureus ATCC 25923 assessed as fold increase in MIC at sub-MIC measured after 30 passages relative to control; type: functional
# [42] = Toxicity in BALB/c mouse infected with Escherichia coli ATCC 25922 assessed as animal survival at 5 mg/kg, iv administered thrice at 1,3 and 5 hrs post-infection measured after 7 days; type: organism-based; conditions: in vivo, 168 h, time 7 day
# Escherichia coli [43] = test: Bactericidal activity against Escherichia coli ATCC 25922 at MIC incubated for 45 mins by time kill assay; type: functional, organism-based
# [44] = Toxicity in BALB/c mouse assessed as change in ALT level at 15 mg/kg, iv administered thrice at 2 hrs interval measured after 7 days; type: organism-based; conditions: in vivo, 168 h, time 7 day
# Staphylococcus aureus [45] = test: Induction of resistance development in methicillin-resistant Staphylococcus aureus 33591 assessed as fold increase in MIC at sub-MIC measured after 30 passages relative to control; type: functional
# [46] = Toxicity in BALB/c mouse assessed as animal survival at 15 mg/kg, iv administered thrice at 2 hrs interval measured after 7 days; type: organism-based; conditions: in vivo, 168 h, time 7 day
# Escherichia coli [47] = test: Antibacterial activity against Escherichia coli ATCC 25922 infected in BALB/c mouse assessed as bacterial count in blood at 5 mg/kg, iv administered thrice at 1,3 and 5 hrs post-infection measured after 24 hrs post-last dose (Rvb ~ 9.6 x10^6 CFU/mL); type: functional; conditions: time 29 hrs
# Escherichia coli [48] = test: Induction of resistance development in Escherichia coli ATCC 25922 assessed as fold increase in MIC at sub-MIC measured after 30 passages relative to control; type: functional
# Escherichia coli [49] = test: Antibacterial activity against Escherichia coli ATCC 25922 infected in BALB/c mouse assessed as bacterial count in spleen at 5 mg/kg, iv administered thrice at 1,3 and 5 hrs post-infection measured after 24 hrs post-last dose (Rvb ~ 1.9 x10^7 CFU/mL); type: functional; conditions: time 29 hrs
substance,measurement,setting,value
H-GRLGRLGRLGRLGRL-OH,HC50 at 40 min,[1],2 mM
same,MIC,[2],5 µM
same,Activity,Staphylococcus aureus [3],100%
same,MIC,Escherichia coli [4],3.8 µM
same,MIC,Staphylococcus aureus [5],3.8 µM
same,MIC,Pseudomonas aeruginosa,15.2 µM
same,Activity,Staphylococcus aureus [6],inactive
same,MIC,Staphylococcus aureus [7],15.2 µM
same,"viability at 24 h, 100 µM",[8],> 80%
same,Activity,[9],Non-toxic
same,"viability at 24 h, 100 µM",[10],> 80%
same,Activity,Staphylococcus aureus [11],inactive
same,Activity,Escherichia coli [12],inactive
same,MIC,Bacillus subtilis,15.2 µM
same,MIC,Klebsiella pneumoniae,60.6 µM
same,Activity,Escherichia coli [13],inactive
same,MIC,Escherichia coli [14],15.2 µM
same,Activity,Escherichia coli [15],inactive
same,Activity,Escherichia coli [16],100%
same,Activity,Staphylococcus aureus [17],inactive
same,Activity,Staphylococcus aureus [18],inactive
same,Retention_time,[19],16.17 min
same,MIC,Staphylococcus aureus [20],15.2 µM
same,MIC,Staphylococcus aureus [21],15.2 µM
same,Activity,Escherichia coli [22],inactive
same,MBC,Staphylococcus aureus [23],7.6 µM
same,MBC,Escherichia coli [24],15.2 µM
H-GRLVGRLVGRLVGRLV-OH,HC50 at 40 min,[1],2 mM
same,MIC,[2],2.5 µM
same,MIC,Escherichia coli [4],1.8 µM
same,MIC,Staphylococcus aureus [5],1.8 µM
same,MIC,Pseudomonas aeruginosa,7.3 µM
same,Activity,Staphylococcus aureus [25],Active
same,Activity,Staphylococcus aureus [6],Active
same,MIC,Staphylococcus aureus [7],1.8 µM
same,Activity,[26],Non-toxic
same,"viability at 24 h, 100 µM",[8],75%
same,Activity,Staphylococcus aureus [27],Active; Emerged As Swiftest Molecule
same,Activity,[9],Non-toxic
same,"viability at 24 h, 100 µM",[10],75%
same,Activity,Staphylococcus aureus [11],Active
same,Activity,Escherichia coli [28],~800 CFU/ml
same,Activity,[29],Active
same,Activity,Escherichia coli [12],Active
same,Activity,[30],inactive
same,Activity,Escherichia coli [31],Active; Emerged As Swiftest Molecule
same,Activity,Escherichia coli [32],1864 CFU/ml
same,MIC,Bacillus subtilis,1.8 µM
same,Activity,[33],Non-toxic
same,remaining at 1 h,[34],~80%
same,MIC,Klebsiella pneumoniae,3.6 µM
same,Survival,[35],60%
same,fold change (FC),Staphylococcus aureus [36],2
same,Activity,Escherichia coli [13],Active
same,MIC,Escherichia coli [14],1.8 µM
same,Activity,[37],Non-toxic
same,Activity,[38],Non-toxic
same,Activity,[39],Non-toxic
same,Activity,Escherichia coli [40],2908 CFU/ml
same,fold change (FC),Staphylococcus aureus [41],2
same,Activity,Escherichia coli [15],Active
same,Survival,[42],100%
same,Activity,Escherichia coli [43],Active
same,Activity,[44],Non-toxic
same,Activity,Staphylococcus aureus [17],Active
same,Activity,Staphylococcus aureus [18],Active
same,fold change (FC),Staphylococcus aureus [45],2
same,Activity,[46],Non-toxic
same,Retention_time,[19],20.24 min
same,Activity,Escherichia coli [47],1020 CFU/ml
same,fold change (FC),Escherichia coli [48],2
same,Activity,Escherichia coli [49],1652 CFU/ml
same,MIC,Staphylococcus aureus [20],1.8 µM
same,MIC,Staphylococcus aureus [21],3.6 µM
same,Activity,Escherichia coli [22],Active
same,MBC,Staphylococcus aureus [23],1.8 µM
same,MBC,Escherichia coli [24],1.8 µM
